Source: US12509734B2, “Systems and methods to assess microbiomes and treatments thereof” (priority 2013, dated 2025)

Columns and labels:
[1] = test system: bacterial vaginosis (BV); experiment: Clinical assessment of BV patients after therapy (Amsel criteria, Nugent score, recurrence); format: in vivo, human
From the text: Patients. Five African American participants were followed at the Vaginitis Clinic at Wayne State University and had been treated for recurrent episodes symptomatic bouts of BV. Patients were enrolled after protocol explanation and written informed consent was obtained. The study was endorsed by the Human Investigational Review Board of Wayne State University. At the time of enrollment, patients were diagnosed with florid symptomatic acute BV, characterized by the presence of at least 3 of the 4 Amsel criteria (homogeneous vaginal discharge, pH elevated above 4.5, clue cells>20%, positive whiff test) and Nugent scores of at least 8.
At this immediate PT visit, patients were given Catch-All Sample Collection Swabs (Epicentre Biotechnologies, Madison, WI) and 15 mL conical tubes for vaginal specimen self-collection. […] Samples from a previously characterized group of recurrent BV patients, sampled before and after treatment, were also evaluated by Lb-qPCR. Reichman et al., Sexually Transmitted Diseases 36: 732-734, 2009.

[2] = test system: vaginal microbiota (PB-primer target groups); experiment: PB-qPCR microbial profiles of vaginal swabs of recurrent BV patients (Example 2); format: in vivo, human
Description: Sample processing, DNA extraction, and qPCR. Microbial gDNA was purified from swabs in 1-2 ml saline or lysis solution by a high SDS/alkaline lysis—phenol extraction protocol as described previously in Lambert and resuspended in 200 μL TE (10 mM Tris, pH 8, 1 mM EDTA). The lysed bacterial gDNA is stable for over one month at room temperature in lysis solution buffer (data not shown) and this buffer prevents changes in titer due to possible stability issues with different strains of bacteria in saline. An aliquot of purified DNA was assayed by qPCR with 18 universal and phylogenetic branch-inclusive (PB) primers and PCR conditions as described previously in Lambert. Additional primers, targeting the Enterococcus genus and its cytolysin gene CyILL, are provided in SEQ ID NOs: 92 and 95 (Enterococcus), and 93 and 96 (cytolysin gene). Each PB-primer targets a branch of the phylogenetic tree, from whole phyla to family or genus, and is far more inclusive than species-specific primers. Relative LB composition of the vaginal microbiome was determined by dividing the Lactobacillaceae titer by the sum of all PB-primers and by using the disclosed LB-blocker approach. Briefly, the LB-blocker approach uses the difference between the quantitative cycles (Cq) of two parallel qPCR reactions with universal primers targeting the 16S rRNA gene, when one of the reactions is in the presence of LB spp.-specific blocking oligomers (LB-blockers) that have been chemically modified to prevent extension and that partially overlap the universal primer binding site, effectively rendering the LB DNA “invisible” to the universal PCR, even when LB gDNA is present at great excess compared to non-LB gDNA, as is common in healthy and PT samples. PB-primers amplicons were selectively sequenced to confirm they were correctly targeted and to identify the dominant species. These were “cleaned” enzymatically as described in Lambert, and Sanger sequenced at Functional Biosciences (Madison, WI). Sequences were uploaded to Ribosomal Database Project II using its Pipeline function; species were identified based on phylogenetic trees constructed in Molecular Evolutionary Genetics Analysis (MEGA5) software.
Calculations. Cq values from qPCR reactions were converted to molecules per reaction by comparing sample Cq values to a standard curve from the same run of Cq values derived from dilutions of an amplicon of known target of known concentration. Molecules per reaction were converted to cells per swab, assuming an average of 5 ribosomal genes per cell and proportioned to the ratio of the volume of the sample used in the DNA prep and the amount of sample used in the qPCR reaction. Delta Cq (ΔCq) values of LB-blocked reaction pairs were calculated as Cq (blocked sample)−Cq (unblocked sample). Differences between patient groups were compared using the t test in (GraphPad software).

[3] = test system: relative LB content of the vaginal microbiome; experiment: Lb-qPCR / LbRC: delta Cq of LB-blocked versus unblocked universal qPCR of vaginal samples; format: in vivo, human; conditions: separate group of recurrent BV patients, FIG. 11
Description: Sample processing, DNA extraction, and qPCR. Microbial gDNA was purified from swabs in 1-2 ml saline or lysis solution by a high SDS/alkaline lysis—phenol extraction protocol as described previously in Lambert and resuspended in 200 μL TE (10 mM Tris, pH 8, 1 mM EDTA). The lysed bacterial gDNA is stable for over one month at room temperature in lysis solution buffer (data not shown) and this buffer prevents changes in titer due to possible stability issues with different strains of bacteria in saline. An aliquot of purified DNA was assayed by qPCR with 18 universal and phylogenetic branch-inclusive (PB) primers and PCR conditions as described previously in Lambert. Additional primers, targeting the Enterococcus genus and its cytolysin gene CyILL, are provided in SEQ ID NOs: 92 and 95 (Enterococcus), and 93 and 96 (cytolysin gene). Each PB-primer targets a branch of the phylogenetic tree, from whole phyla to family or genus, and is far more inclusive than species-specific primers. Relative LB composition of the vaginal microbiome was determined by dividing the Lactobacillaceae titer by the sum of all PB-primers and by using the disclosed LB-blocker approach. […]
Calculations. […] Delta Cq (ΔCq) values of LB-blocked reaction pairs were calculated as Cq (blocked sample)−Cq (unblocked sample). […]

[4] = test system: bacterial vaginosis (BV); conditions: 121 women with BV successfully treated; cited from earlier work
[5] = P2, 500 mg suppositories, 2 per day for 7 days
[6] = P5, 7 daily 500 mg vaginal suppositories
[7] = separate group of recurrent BV patients

## CCC[C@@H]1C[C@@H](C(=O)N[C@@H]([C@H]2O[C@H](SC)[C@H](O)[C@@H](O)[C@H]2O)[C@H](C)Cl)N(C)C1 [clindamycin]
[1]; P3, Nugent 10 before
  Nugent score after treatment: 0
[2]; P3-post
  Actinobacteridae (G. vaginalis) after treatment, fold lower than P1 or P2: 10-100 fold
  Mobiluncus share after treatment: 0.4%
  Share of all other targets after treatment: below 0.01%

## Cc1ncc([N+](=O)[O-])n1CCO [metronidazole]
[1]; P1, daily suppositories 750 mg
  Clinical status 10 days later: full remission
  Day of recurrence of symptomatic BV: 94 days
[1]; P1, high dose vaginal
  Amsel status after treatment: Amsel negative
[1]; P1, high dose vaginal, after first and second BV episodes
  Nugent score after treatment: 0
[1]; P1, vaginal 500-750 mg twice weekly
  Florid episodes of BV in the two previous years in spite of prophylactic therapy: 4
[1]; P2-post1, oral
  Amsel status after treatment: Amsel negative
  Nugent score after treatment: 0
[1]; [5]
  Day symptoms were reported after second treatment: 152 days
  Response to second treatment: recovered well
[1]; P2, 2x500 mg suppositories daily for 7 days
  Time to recurrence after second treatment (self-reported): approximately 117 days PT
[1]; P2, oral 500 mg bid for 7 days
  Clinical status one week later: asymptomatic
  Time of symptomatic recurrence after enrollment: 35 days
[1]; [6]
  Clinical status 21 days later: asymptomatic in clinical remission
  Nugent score 21 days later: 4
[1]; five recurrent BV patients, Nugent scores of 0 except Patient 5
  Outcome at return within three weeks by Amsel criteria: clinical cure
[1]; [7]
  Nugent average after treatment, Post A group: 2.2±4.0
  Nugent average after treatment, Post B group: 0.8±1.2
[2]; P1-post1
  Actinobacteridae (G. vaginalis) share after treatment: 2%
[2]; P1-post1 and -post2, high dose vaginal
  Lactobacillaceae share of post-treatment samples: > 97%
[2]; P1-post2 versus P1-post1
  Further fold reduction of G. vaginalis: ~100 fold
[2]; P2-post1, oral
  Actinobacteridae (G. vaginalis) share after treatment: < 0.5%
  Share of 6-8 other targets after treatment: under 0.1%
[3]
  delta Cq score after treatment, Post A group: 4.1±2.2
  delta Cq score after treatment, Post B group: 17±6
[4]
  Women who recurred within one year: 58%
  Women who returned to abnormal vaginal profiles: 69%
